Converted amounts (≈) assume the structure as drawn.
Tests used:
[1] = test system: Mycobacterium tuberculosis H37Rv; assay: Mycobacterium tuberculosis H37Rv Inhibition Assay; assay type: cell-based; conditions: ATCC 25618 / H37Rv, H37Rv strain (ATCC25618), Middlebrook 7H9, resazurin fluorescence, read-out: MtB MIC
[2] = test system: E. coli 120 AcrAB-; assay: Antimicrobial Activity Assay, whole-cell broth microdilution (CLSI M7-A7); assay type: cell-based; conditions: Escherichia coli, read-out: lowest MIC
Protocol: Whole-cell antimicrobial activity was determined by broth microdilution using the Clinical Laboratory Standards Institute (CLSI) recommended procedure, Document M7-A7, “Methods for Dilution Susceptibility Tests for Bacteria that Grow Aerobically”.
In addition, compounds were evaluated against a panel of Gram-negative organisms including Haemophilus influenzae, Moraxella catarrhalis, Escherichia coli,
The minimum inhibitory concentration (MIC) was determined as the lowest concentration of compound that inhibited visible growth. A mirror reader was used to assist in determining the MIC endpoint.

Q: For Cc1cc(CNC2CCN(C[C@@H]3Cn4c(=O)ccc5ccc(=O)n3c54)CC2)cnc1C#N [Example 32, 5-{[(1-{[(1R)-4,9-dioxo-1,2-dihydro-4H,9H-imidazo[1,2,3-ij]-1,8-naphthyridin-1-yl]methyl}-4-piperidinyl)amino]methyl}-3-methyl-2-pyridinecarbonitrile], which MIC [1] is on record?
A: Its MIC is 0.538 µg/mL (≈ 1.25 µM).

Q: And the MIC [2]?
A: Its MIC is 4 µg/mL (≈ 9.29 µM).

Reference: US8097628B2, “Compounds” (Glaxo Group Limited, priority 2008, dated 2012)
